Data reported in article PMC10819771 (Pharmaceuticals, 2023).
Read-outs that look alike come from different tables or passages of the source.

What was measured:
[1] = system: FdxT (DNA, hairpin, hexaethylene glycol linker between 10 and 11) TATAGCTATATATAGCTATA; experiment: FRET melting; details: 10 mM K+, 90 mM Li+, 10 mM lithium cacodylate pH 7.2, 0.2 µM DNA
[2] = system: HeLa; experiment: MTT antiproliferative assay, HeLa; assay type: cell-based, human; details: for IC50: Homo sapiens, HeLa, MTT, 72 h, cervical cancer cells, read-out: IC50 Values (μM) ± SEM HeLa
Method: (§1) The growth-inhibitory effects of the compounds were determined by MTT (3-(4,5-dimethylthiazol-2-yl)-2,5-diphenyltetrazolium bromide) assay on selected cell lines, including HeLa and SiHa (cervical cancers), MDA-MB-231 and MCF-7 (breast cancers), and A2780 ovarian cancer cells. All cell lines were purchased from the European Collection of Cell Cultures (Salisbury, UK) except SiHa, which was obtained from the American Tissue Culture Collection (Manassas, VA, USA). The cells were kept in minimum essential medium supplemented with 10% fetal bovine serum, 1% non-essential amino acids, and 1% penicillin-streptomycin-amphotericin-B at 37 °C in a humidified atmosphere containing 5% CO2. Media and supplements were obtained from Lonza Group Ltd., (Basel, Switzerland). Cancer cells were seeded onto 96-well plates (5000 cells/well), after an overnight incubation the test compounds were added in six concentrations (0.1, 0.3, 1.0, 3.0, 10.0, 30.0 µM) and incubated for 72 h under cell-culture condition. After the incubation, 20 μL of 5 mg/mL MTT solution was added to each well and incubated for a further 4 h. The medium was removed, and the precipitated formazan crystals were dissolved in DMSO for 30 min under shaking at 37 °C. The absorbance was measured at 545 nm with a microplate reader. Untreated cells were included as controls. Calculations were performed by means of the GraphPad Prism 5.01 software (GraphPad Software Inc., San Diego, CA, USA). At least two independent determinations were performed with 5 parallel wells for each condition.

[3] = system: SiHa; experiment: MTT antiproliferative assay, SiHa; assay type: cell-based, human; details: for IC50: Homo sapiens, SiHa, MTT, 72 h, cervical cancer cells, read-out: IC50 Values (μM) ± SEM SiHa
Method: as §1

[4] = system: MCF-7; experiment: MTT antiproliferative assay, MCF-7; assay type: cell-based, human; details: for IC50: MTT, 72 h, breast cancer cells, read-out: IC50 Values (μM) ± SEM MCF-7
Method: as §1

[5] = system: MDA-MB-231; experiment: MTT antiproliferative assay, MDA-MB-231; assay type: cell-based, human; details: for IC50: MTT, 72 h, breast cancer cells, read-out: IC50 Values (μM) ± SEM MDA-MB-231
Method: as §1

[6] = system: A2780; experiment: MTT antiproliferative assay, A2780; assay type: cell-based, human; details: for IC50: Homo sapiens, A2780, MTT, 72 h, ovarian cancer cells, read-out: IC50 Values (μM) ± SEM A2780
Method: as §1

[7] = system: K562; experiment: MTS cell proliferation assay, K562; assay type: cell-based, human; details: for IC50: Homo sapiens, K562, 72 h, MTS, 3-day incubation, leukemia cells, read-out: IC50 Values (μM) ± SEM K562
Method: The human leukemic cell line K562 was grown in RPMI 1640 medium (Life Technology-Invitrogen by Thermo Fisher Scientific, Saint-Aubin, France) supplemented with 10% fetal calf serum (FCS), antibiotics (100 U/mL penicillin, 100 µg/mL streptomycin), and L-glutamine, (Eurobio, Les Ulis, France) at 37 °C, 5% CO2 in air. The MTS cell proliferation assay (Promega, Charbonnières-les-Bains, France) is a colorimetric assay system, which measures the transformation of a tetrazolium component (MTS) into formazan produced by the mitochondria of viable cells. Cells were washed twice in PBS (Phosphate Buffer Saline) and plated in quadruplicate into microtiter-plate wells in 100 μL culture media with or without our various compounds at increasing concentrations (0, 1, 5, 10, 20, and 50 μM) for 1, 2, and 3 days. After 3 h of incubation at 37 °C with 20 μL MTS/well, the plates were read using an ELISA microplate reader (Thermo, Electrocorporation, Waltham, MA, USA) at 490 nm. The amount of color produced was directly proportional to the number of viable cells. The results are expressed as the concentrations inhibiting cell growth by 50% after a 3-day incubation period. The 50% cytotoxic concentrations (CC50) were determined by linear regression analysis, expressed in μM ± SD (Microsoft Excel).

[8] = system: Fc-MYCT; experiment: FRET-melting, Fc-MYCT; assay type: binding; details: DNA 0.2 μM, K+ conditions, pH 7.2
Method: (§2) FRET-melting experiments were conducted on a Stratagene MX3005P (Thermo Fisher Scientific, Illkirch-Graffenstaden, France) real-time PCR equipment in 96-well plates on the DNA sequences reported in Table 4. Experiments were performed in 10 mM lithium cacodylate buffer (pH 7.2) and either 10 mM KCl and 90 mM LiCl (FK-RAST, FBCL-2T, F21T, and FdxT) or 1 mM KCl and 99 mM LiCl (Fc-MYCT) concentrations, depending on the Tm of the G4s alone. The DNA concentration was 0.2 µM. […] Data are presented as an average of three independent measurements, each conducted in duplicate conditions (λexc = 492 nm, λem = 516 nm, T interval = 25–95 °C, ramp: 25 °C for 5 min, then 1 °C/min, measurements every 1 °C, 8× magnification of the fluorescence signal).

[9] = system: FK-RAST; experiment: FRET-melting, FK-RAST; assay type: binding; details: DNA 0.2 μM, 10 mM KCl, 90 mM LiCl, pH 7.2
Method: as §2

[10] = system: FBCL-2T; experiment: FRET-melting, FBCL-2T; assay type: binding; details: DNA 0.2 μM, 10 mM KCl, 90 mM LiCl, pH 7.2
Method: as §2

[11] = system: human telomeric sequence F21T; experiment: FRET-melting, F21T; assay type: binding; details: DNA 0.2 μM, 10 mM KCl, 90 mM LiCl, pH 7.2
Method: as §2

[12] = system: FdxT; experiment: FRET-melting, duplex control FdxT; assay type: binding; details: DNA 0.2 μM, 10 mM KCl, 90 mM LiCl, pH 7.2, hairpin duplex
Method: as §2

[13] = system: FK-RAST (DNA, G4) AGGGCGGTGTGGGAAGAGGGA; experiment: FRET melting; details: 10 mM K+, 90 mM Li+; 10 mM lithium cacodylate pH 7.2; 0.2 µM DNA, 2 µM compound
[14] = system: F21T (DNA, G4) GGGTTAGGGTTAGGGTTAGGG; experiment: FRET melting; details: 10 mM K+, 90 mM Li+, 10 mM lithium cacodylate pH 7.2, 0.2 µM DNA
[15] = system: HEK293; experiment: MTT proliferation test on normal cells, HEK293; assay type: cell-based; details: Homo sapiens, normal epithelial cells, cytotoxicity, read-out: IC50 Values (μM) ± SEM HEK293
Method: The MTT proliferation test on the epithelial cell line HEK293 was performed as pre-viously described. The 50% inhibiting concentrations (IC50) were determined by linear regression analysis.

[16] = system: telomerase; experiment: Telomerase activity (TRAP assay) in MCF-7 cell lysates; assay type: biochemical, human; details: MCF-7 cell lysate
Method: Telomerase activity was assessed using the TRAP assay kit (TRAPeze® RT telomerase detection kit, Chemicon, Millipore Sigma S7700, Merck KGaA, Darmstadt, Germany) according to manufacturer’s instructions with some modifications. Briefly, […] in CHAPS lysis buffer and proteins were extracted. Protein extracts and various concentrations of compounds (0 to 5 µM) were used to extend a synthetic telomeric DNA using an enzymatic reaction (30 °C during 20 min), followed by a quantification of telomeric DNA using a telomeric PCR amplification: 95 °C for 3 min, 2 cycles of 95 °C for 20 s, and 49 °C for 20 s, followed by 30 cycles 95 °C for 20 s and 60 °C for 20 s with signal acquisition) in a Stratagene Mx3005P system (Agilent, Les Ulis, France) using specific telomeric PCR quantitative primers. Each sample was measured in technical duplicate with control DNA. For each drug and each dilution, we used biological triplicate of cell lysates.

[17] = system: Fc-MYCT (DNA, G4) GGGTGGGTAGGGTGGGTAA; experiment: FRET melting; details: 1 mM K+, 99 mM Li+ (table footnote says 10 mM KCl, 90 mM LiCl); 10 mM lithium cacodylate pH 7.2; 0.2 µM DNA, 2 µM compound

Compound	IC50 [2]	IC50 [3]	IC50 ([4]; Homo sapiens, MCF7, 72 h)	IC50 ([5]; Homo sapiens, MDA-MB-231, 72 h)	IC50 [6]	IC50 [7]	ΔT1/2 (°C) Fc-MYCT ([8]; ligand 2 μM)	ΔT1/2 (°C) FK-RAST ([9]; ligand 2 μM)	ΔT1/2 (°C) FBCL-2T ([10]; ligand 2 μM)	ΔT1/2 (°C) F21T ([11]; ligand 2 μM)	ΔT1/2 (°C) FdxT ([12]; ligand 2 μM)	other results
CN1CCN(CCCNCc2ccc(-c3cc(-c4ccc(CNCCCN5CCN(C)CC5)cc4)c4cc(-c5ccccc5)ccc4n3)cc2)CC1												ΔT1/2 ([1]; 2 µM compound): 0.1 ± 0.2 °C
CN(C)CCCNCc1ccc(-c2nc(-c3ccc(CNCCCN(C)C)cc3)c3c(-c4ccccc4)cccc3n2)cc1 [Compound 12a, 2,4-bis{4-[(3-dimethylaminopropyl)aminomethyl]phenyl}-5-phenylquinazoline]	1.36 ± 0.04 µM	0.62 ± 0.12 µM	1.12 to 1.24 µM	1.45 µM	2.6 ± 0.03 µM	14 ± 0.2 µM	9.3 ± 0.3 °C	10.6 ± 0.6 °C	7.4 ± 0.9 °C	6.8 ± 0.8 °C	0.9 ± 0.2 °C	IC50 [4]: 1.12 ± 0.13 µM; IC50 [5]: 1.45 ± 0.14 µM; ΔT1/2 [13]: 10.6 ± 0.6 °C; ΔT1/2 ([14]; 2 µM compound): 6.8 ± 0.8 °C
CN1CCN(CCCNCc2ccc(-c3nc(-c4ccc(CNCCCN5CCN(C)CC5)cc4)c4ccc(-c5ccccc5)cc4n3)cc2)CC1 [Compound 12i]	1.15 ± 0.36 µM	0.92 ± 0.24 µM	0.67 ± 0.31 µM	0.52 ± 0.02 µM	1.14 ± 0.16 µM	23 ± 0.5 µM	12.5 ± 0.7 °C	20.2 ± 0.5 °C	14.8 ± 0.7 °C	18.6 ± 0.2 °C	1.9 ± 0.1 °C	Selectivity Index HEK293/HeLa ([2]; IC50 HEK293 / IC50 HeLa): >26.1; Selectivity Index HEK293/SiHa ([3]; IC50 HEK293 / IC50 SiHa): >32.6; Selectivity Index HEK293/MCF-7 ([4]; IC50 HEK293 / IC50 MCF-7): >44.8; Selectivity Index HEK293/MDA-MB-231 ([5]; IC50 HEK293 / IC50 MDA-MB-231): >57.7; Selectivity Index HEK293/A2780 ([6]; IC50 HEK293 / IC50 A2780): >26.3; Selectivity Index HEK293/K562 ([7]; IC50 HEK293 / IC50 K562): >1.30; IC50 [15]: > 30 µM; telomerase activity compared to control ([16]; 5 µM compound): reduced drastically; concentration from which MCF-7 telomerase activity is decreased ([16]; 0 to 5 µM tested): 5 µM
CN(C)CCCNCc1ccc(-c2cc(-c3ccc(CNCCCN(C)C)cc3)c3cccc(-c4ccccc4)c3n2)cc1 [Compound 13e, 2,4-bis{4-[(3-dimethylaminopropyl)aminomethyl]phenyl}-8-phenylquinoline]	1.28 ± 0.21 µM	1.07 ± 0.45 µM	1.12 ± 0.1 µM	1.21 ± 0.03 µM	1.5 ± 0.34 µM	7 ± 0.1 µM	5.5 ± 0.9 °C	11.6 ± 1.4 °C	8.3 ± 0.1 °C	15.9 ± 0.4 °C	0.2 ± 0.1 °C	ΔT1/2 [17]: 5.5 ± 0.9 °C
C[n+]1cc(NC(=O)c2ccc3ccc4ccc(C(=O)Nc5cc6ccccc6[n+](C)c5)nc4c3n2)cc2ccccc21 [PhenDC3, reference compound]												ΔT1/2 (°C) Fc-MYCT ([8]; ligand 0.5 μM): 11.5 ± 0.3 °C; ΔT1/2 (°C) FK-RAST ([9]; ligand 0.5 μM): 16.9 ± 0.4 °C; ΔT1/2 (°C) FBCL-2T ([10]; ligand 0.5 μM): 13.1 ± 0.1 °C; ΔT1/2 (°C) F21T ([11]; ligand 0.5 μM): 21.2 ± 0.5 °C; ΔT1/2 (°C) FdxT ([12]; ligand 0.5 μM): −0.6 ± 0.1 °C; ΔT1/2 ([14]; 0.5 µM compound): 21.2 ± 0.5 °C; ΔT1/2 ([1]; 0.5 µM compound): -0.6 ± 0.1 °C
